Measured values reported in patent US11896600B2, “Composition and method of using eicosanoyl-5-hydroxytryptamide for treating neurodegenerative disorders” (Vidya Herbs, Inc., priority 2019, dated 2024).
Counter-ions that a name gives are not always drawn.

Tested on: scopolamine-induced amnesia in mice
Test: Elevated plus maze (transfer latency) in scopolamine-induced amnesia mice
Conditions: donepezil hydrochloride 3 mg/kg p.o., 7-day pre-treatment; p<0.001
Protocol: Groups III-V mice were dosed every 24 h interval with respective drugs for 7 consecutive days. On day 7, amnesia was induced in all the groups except the control group by intraperitoneal injection of scopolamine (1 mg/kg) 30 minutes after the respective treatments. 30 minutes later, elevated plus maze (EPM) was carried out to assess the cognitive function. At the end of experiment, mice were sacrificed; serum and brain homogenates were used for further analysis.
Briefly, the acquisition trail (day 6) was carried out by placing the mouse at the end of an open arm. The time taken by the mouse to enter any of the closed arms was taken as transfer latency. Cutoff time allotted for each mouse was 180 s. Retention trail was carried out 24 h after the first trail (Day 7, 30 min after scopolamine treatment). The transfer latency was determined in a similar manner as mentioned before. Shortened transfer latency was considered as an index of memory improvement.
In this study, EPM was applied as a behavioral model to assess learning and memory.

## COc1cc2c(cc1OC)C(=O)C(CC1CCN(Cc3ccccc3)CC1)C2 (stereo not shown) [donepezil, donepezil hydrochloride]
  reduction of latency period (transfer latency) compared to scopolamine control group: 82.45%
